What was measured:
[1] = target: T1, Neutrophil elastase (Homo sapiens) (UniProt P08246); assay: Specificity constant on human neutrophil elastase was determined at 20 percent and at 95 minutes for maximum inhibition and no enzyme activity was recovered over the 2 h-time
T1 sequence (whole entry): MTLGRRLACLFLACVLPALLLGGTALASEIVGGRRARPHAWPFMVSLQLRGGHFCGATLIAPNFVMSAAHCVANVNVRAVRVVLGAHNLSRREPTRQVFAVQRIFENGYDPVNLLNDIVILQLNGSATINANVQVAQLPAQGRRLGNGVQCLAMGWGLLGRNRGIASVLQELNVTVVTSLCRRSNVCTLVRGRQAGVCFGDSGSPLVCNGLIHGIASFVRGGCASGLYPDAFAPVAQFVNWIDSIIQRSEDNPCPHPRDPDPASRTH

[2] = target: T1, Neutrophil elastase (Homo sapiens); assay: Rate constant of acylation on human neutrophil elastase was determined at 20 percent and at 95 minutes for maximum inhibition and no enzyme activity was recovered over the 2 h-time
[3] = target: T1, Neutrophil elastase (Homo sapiens); assay: Binding constant on human neutrophil elastase was determined at 20 percent and at 95 minutes for maximum inhibition and no enzyme activity was recovered over the 2 h-time
[4] = target: T2, Chymotrypsin-like elastase family member 2A (Sus scrofa) (UniProt P08419); assay: Specificity constant on porcine pancreatic elastase was determined at 15 percent and at 35 minutes for maximum inhibition with 0 minutes persistence of inhibition
T2 sequence (whole entry): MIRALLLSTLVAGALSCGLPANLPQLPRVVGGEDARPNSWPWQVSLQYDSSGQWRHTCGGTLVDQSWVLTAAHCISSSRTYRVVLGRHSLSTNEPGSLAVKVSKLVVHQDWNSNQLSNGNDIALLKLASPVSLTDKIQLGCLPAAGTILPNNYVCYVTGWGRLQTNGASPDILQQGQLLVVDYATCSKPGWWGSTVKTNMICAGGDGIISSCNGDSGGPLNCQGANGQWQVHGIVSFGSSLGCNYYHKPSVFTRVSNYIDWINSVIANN

[5] = target: T2, Chymotrypsin-like elastase family member 2A (Sus scrofa); assay: Binding constant on porcine pancreatic elastase was determined at 15 percent and at 35 minutes for maximum inhibition with 0 minutes persistence of inhibition
[6] = target: T2, Chymotrypsin-like elastase family member 2A (Sus scrofa); assay: Rate constant of acylation on porcine pancreatic elastase was determined at 15 percent and at 35 minutes for maximum inhibition with 0 minutes persistence of inhibition
[7] = target: T3, Urokinase-type plasminogen activator (Homo sapiens, UniProt P00749); assay: Rate constant of deacylation for Urokinase-type plasminogen activator; NM - Fast and could not be measured
Serine protease 1 [8] = target: T4, Serine protease 1 (Homo sapiens, UniProt P07477); assay: Binding constant on trypsin was determined at 0 percent and at 97 minutes for maximum inhibition with 45 minutes persistence of inhibition
Serine protease 1 [9] = target: T4, Serine protease 1; assay: Rate constant of acylation on trypsin was determined at 0 percent and at 97 minutes for maximum inhibition with 45 minutes persistence of inhibition
[10] = target: T3, Urokinase-type plasminogen activator; assay: Binding constant on Urokinase-type plasminogen activator was determined at 0 percent and at 97 minutes for maximum inhibition and no enzyme activity was recovered over the 2 h-time
[11] = target: T3, Urokinase-type plasminogen activator; assay: Specificity constant on Urokinase-type plasminogen activator was determined at 0 percent and at 97 minutes for maximum inhibition and no enzyme activity was recovered over the 2 h-time
Serine protease 1 [12] = target: T4, Serine protease 1; assay: Specificity constant on trypsin was determined at 0 percent and at 97 minutes for maximum inhibition with 45 minutes persistence of inhibition
[13] = target: T3, Urokinase-type plasminogen activator; assay: Rate constant of acylation on Urokinase-type plasminogen activator […] was determined at 0 percent and at 97 minutes for maximum inhibition and no enzyme activity was recovered over the 2 h-time
Serine protease 1 [14] = target: T4, Serine protease 1; assay: Rate constant of deacylation for trypsin; Fast and could not be measured
[15] = target: T3, Urokinase-type plasminogen activator; assay: Rate constant of deacylation for Urokinase-type plasminogen activator
Serine protease 1 [16] = target: T4, Serine protease 1; assay: Rate constant of deacylation for trypsin
[17] = target: Chymotrypsinogen A (Bos taurus) (UniProt P00766); assay: Binding constant on alpha-chymotrypsin was determined at 45 percent and at 96 minutes for maximum inhibition and no enzyme activity was recovered over the 2 h-time
[18] = target: T2, Chymotrypsin-like elastase family member 2A (Sus scrofa); assay: Specificity constant on porcine pancreatic elastase was determined at 30 percent and at 99 minutes for maximum inhibition and no enzyme activity was recovered over the 2 h-time
[19] = target: Chymotrypsinogen A (Bos taurus) (UniProt P00766); assay: Specificity constant on alpha-chymotrypsin was determined at 10 percent and at 98 minutes for maximum inhibition and no enzyme activity was recovered over the 2 h-time
[20] = target: T1, Neutrophil elastase (Homo sapiens); assay: Specificity constant on human neutrophil elastase was determined at 30 percent and at 80 minutes for maximum inhibition and no enzyme activity was recovered over the 2 h-time
[21] = target: Chymotrypsinogen A (Bos taurus) (UniProt P00766); assay: Binding constant on alpha-chymotrypsin was determined at 10 percent and at 98 minutes for maximum inhibition and no enzyme activity was recovered over the 2 h-time
[22] = target: Chymotrypsinogen A (Bos taurus) (UniProt P00766); assay: Rate constant of acylation on alpha-chymotrypsin was determined at 10 percent and at 98 minutes for maximum inhibition and no enzyme activity was recovered over the 2 h-time
Serine protease 1 [23] = target: T4, Serine protease 1; assay: Binding constant on trypsin was determined at 10 percent and at 83 minutes for maximum inhibition and no enzyme activity was recovered over the 2 h-time
[24] = target: T1, Neutrophil elastase (Homo sapiens); assay: Binding constant on human neutrophil elastase was determined at 30 percent and at 80 minutes for maximum inhibition and no enzyme activity was recovered over the 2 h-time
[25] = target: T2, Chymotrypsin-like elastase family member 2A (Sus scrofa); assay: Rate constant of acylation on porcine pancreatic elastase was determined at 30 percent and at 99 minutes for maximum inhibition and no enzyme activity was recovered over the 2 h-time
[26] = target: T1, Neutrophil elastase (Homo sapiens); assay: Rate constant of acylation on human neutrophil elastase was determined at 30 percent and at 80 minutes for maximum inhibition and no enzyme activity was recovered over the 2 h-time
Serine protease 1 [27] = target: T4, Serine protease 1; assay: Specificity constant on trypsin was determined at 10 percent and at 83 minutes for maximum inhibition and no enzyme activity was recovered over the 2 h-time
Serine protease 1 [28] = target: T4, Serine protease 1; assay: Rate constant of acylation on trypsin was determined at 10 percent and at 83 minutes for maximum inhibition and no enzyme activity was recovered over the 2 h-time
[29] = target: T2, Chymotrypsin-like elastase family member 2A (Sus scrofa); assay: Binding constant on porcine pancreatic elastase was determined at 30 percent and at 99 minutes for maximum inhibition and no enzyme activity was recovered over the 2 h-time
Serine protease 1 [30] = target: T4, Serine protease 1
[31] = target: Chymotrypsinogen A (Bos taurus) (UniProt P00766)
[32] = target: T3, Urokinase-type plasminogen activator
[33] = target: Chymotrypsinogen A (Bos taurus) (UniProt P00766); remark: listed apart in the source
Chymotrypsinogen A = Chymotrypsinogen A (Bos taurus, UniProt P00766); assay: Rate constant of deacylation for alpha-chymotrypsin; Fast and could not be measured
[34] = target: Chymotrypsinogen A (Bos taurus) (UniProt P00766); remark: listed apart in the source
Serine protease 1 [35] = target: T4, Serine protease 1; remark: listed apart in the source
[36] = target: T3, Urokinase-type plasminogen activator; remark: listed apart in the source
Description: Specificity constant on Urokinase-type plasminogen activator was determined at 0 percent and at 86 minutes for maximum inhibition and no enzyme activity was recovered over the 2 h-time

[37] = target: T3, Urokinase-type plasminogen activator; remark: listed apart in the source
Serine protease 1 [38] = target: T4, Serine protease 1; remark: listed apart in the source
Description: Specificity constant on trypsin was determined at 0 percent and at 95 minutes for maximum inhibition and no enzyme activity was recovered over the 2 h-time

T4 sequence (P07477 whole entry): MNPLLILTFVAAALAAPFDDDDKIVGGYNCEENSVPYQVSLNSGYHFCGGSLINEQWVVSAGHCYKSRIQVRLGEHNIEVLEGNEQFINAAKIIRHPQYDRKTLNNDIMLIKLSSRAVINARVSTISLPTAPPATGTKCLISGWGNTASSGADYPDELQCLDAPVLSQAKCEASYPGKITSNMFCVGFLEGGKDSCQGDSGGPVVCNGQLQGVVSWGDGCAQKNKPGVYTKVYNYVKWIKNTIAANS

A ka/Ki [1] of 4500 M⁻¹ s⁻¹, a ka [2] of 0.81 min⁻¹ and a Ks/i [3] of 3 µM were found for `C/C(Br)=C1/CCC(C(C)C)C(=O)O1` (stereo not given) in this work. It also gave a ka/Ki [4] of 333 M⁻¹ s⁻¹, a Ks/i [5] of 48.7 µM and a ka [6] of 1.12 min⁻¹.
In the case of `C=C1CCC(c2ccc(NC(=N)N)cc2)C(=O)O1` (stereo not given), the Kd [7] is reported as “Not measurable”, the Ks/i (Serine protease 1 [8]) is reported as 0.23 µM and the ka (Serine protease 1 [9]) is reported as 14.3 min⁻¹. The Ks/i [10] was 0.33 µM, the ka/Ki [11] was 1.98e+07 M⁻¹ s⁻¹ and the ka/Ki (Serine protease 1 [12]) was 1.03e+06 M⁻¹ s⁻¹. The ka [13] was 391 min⁻¹ and the Kd (Serine protease 1 [14]) was “Not measurable”.
A Kd [15] of 1.3e-05 s⁻¹, a Kd (Serine protease 1 [16]) of 8.3e-05 s⁻¹ and a Ks/i [17] of 0.17 µM were found for `N=C(N)Nc1ccc([C@H]2C/C(=C\I)OC(=O)[C@@H]2NC(=O)c2ccccc2)cc1` in this work.
A ka/Ki [18] of 83.3 M⁻¹ s⁻¹, a ka/Ki [19] of 667 M⁻¹ s⁻¹ and a ka/Ki [20] of 34700 M⁻¹ s⁻¹ were found for `C=C1CCC(C(C)C)C(=O)O1` (stereo not given) in this work. It also gave a Ks/i [21] of 89 µM, a ka [22] of 3.2 min⁻¹ and a Ks/i (Serine protease 1 [23]) of 24 µM. For the same compound, the Ks/i [24] was 6.25 µM, the ka [25] was 0.42 min⁻¹ and the ka [26] was 13 min⁻¹. It also gave a ka/Ki (Serine protease 1 [27]) of 333 M⁻¹ s⁻¹, a ka (Serine protease 1 [28]) of 0.45 min⁻¹ and a Ks/i [29] of 88 µM.
A Ks/i (Serine protease 1 [30]) of 10 µM, a ka/Ki [31] of 350000 M⁻¹ s⁻¹ and a ka [32] of 4.83 min⁻¹ were found for `C=C1C[C@H](c2ccc(NC(=N)N)cc2)[C@@H](NC(=O)c2ccccc2)C(=C)O1` in this work. The ka [33] was 9.51 min⁻¹, the Kd (Chymotrypsinogen A) was “Not measurable” and the Ks/i [34] was 0.46 µM. The ka (Serine protease 1 [35]) was 10.2 min⁻¹, the ka/Ki [36] was 13300 M⁻¹ s⁻¹ and the Ks/i [37] was 6 µM. The ka/Ki (Serine protease 1 [38]) was 17000 M⁻¹ s⁻¹ and the Kd (Serine protease 1 [14]) was 2.5e-05 s⁻¹.
